From patent US20250064799A1, “ORAL FORMULATIONS OF LEVOSIMENDAN FOR TREATING PULMONARY HYPERTENSION WITH HEART FAILURE WITH PRESERVED EJECTION FRACTION” (Tenax Therapeutics, Inc., priority 2021, published 2025)
Values joined by “and” are separate entries in the source; they are usually repeats but may differ in a detail not shown here. Equal entries are not always repeated.

Tests used:
[1] = system: patients with PH-HFpEF; assay: Resting heart rate and systolic arterial blood pressure, I.V. to oral levosimendan transition study; format: in vivo, human
Protocol: Once that dose is determined, the study is identical with respect to the protocol. Since the I.V. formulation is weight based, and bypasses issues of bioavailability that may be affected by drug absorption, a dose escalation strategy is being adopted, guided by the individual patient response and any adverse events that may occur. Thus, the measurement of a six-minute walk test and patient questionnaire before and after the transition was to ensure that the patient continues to benefit. In addition, the monitoring of the patients' blood pressure and heart rate each day was to ensure that the oral dose remains safe.
The following considerations justified amending the TNX-LVO-05 study protocol: • 1. The amended TNX-LVO-05 protocol included the same patients enrolled in the original study. This was not a new study of the patients currently enrolled. This was open label, with no blinding of patients or physicians, and no control group. • 2. The scope and purpose of the study was unchanged, with the exception that it offered the further extension of treatment allowed by the transition to oral therapy (See item #4). • 3. The amendment clearly delineated a stepwise and thoughtful titration of patients from their intravenous to oral levosimendan to ensure the safe and effective transition of their levosimendan regimen. • a. Patients were started on 1 mg daily, representing a dose generally less than half their total weekly weight-based dose regimen. • b. Patients were titrated based on tolerance to the daily levosimendan paying attention to their symptoms of PH-HFpEF, and special attention to specific adverse events of interest, heart rate and blood pressure. A daily diary captured patient vitals and symptoms to aid their physician in titrating patients at two-week intervals. • c. Patient response also was evaluated by clinical measures to provide the physician with additional information on the patient's response. • d. While most patients were expected to receive 2-3 mg daily at the conclusion of the transition study, the dose escalation strategy was included to allow all patients to realize the same benefit as they did from the I.V. formulation. • e. To document the sustained efficacy of the oral formulation in these patients, patients had to undergo a six-minute walk test and patient questionnaire prior to and at the end of the transition study. • 4. The transition to oral levosimendan allowed for extension of the study from its initial two years to an additional three years. This offers these PH-HFpEF patients, with no other treatments available, to continue on a drug that they have responded to. • 5. The amendment required patients to sign a revised informed consent to ensure patients are completely informed concerning the transition amendment. Patients that preferred to continue with their weekly 24-hour I.V. regimen were allowed to continue through the initial two-year period of the study and then will be withdrawn.
Methods: Patients with PH-HFpEF who were in the open label extension study of the HELP Trial for more than 18 months volunteered to enroll in this transition protocol. Patients were initiated with 1 mg/day of oral levosimendan 5-7 days after the last IV levosimendan infusion. The oral dose was increased every 2 weeks by 1 mg/day to a maximum of 4 mg/day over an 8 week period. The highest daily dose was determined by the investigator based on clinical assessments of symptoms and side effects. The primary safety endpoints were change in resting heart rate and blood pressure from baseline to final study visit and all other adverse events. Secondary efficacy endpoints included change in six-minute walk distance (6MWD), serum brain natriuretic peptide (BNP) or NT-proBNP levels, and quality of life as assessed by Kansas City Cardiomyopathy Questionnaire clinical summary score (KCCQ-CS) and overall summary score (KCCQ-OS) from baseline to final study visit. […]

[2] = system: patients with PH-HFpEF; assay: Kansas City Cardiomyopathy Questionnaire (KCCQ), I.V. to oral levosimendan transition study; format: in vivo, human
Protocol: Methods: Patients with PH-HFpEF who were in the open label extension study of the HELP Trial for more than 18 months volunteered to enroll in this transition protocol. Patients were initiated with 1 mg/day of oral levosimendan 5-7 days after the last IV levosimendan infusion. The oral dose was increased every 2 weeks by 1 mg/day to a maximum of 4 mg/day over an 8 week period. The highest daily dose was determined by the investigator based on clinical assessments of symptoms and side effects. The primary safety endpoints were change in resting heart rate and blood pressure from baseline to final study visit and all other adverse events. Secondary efficacy endpoints included change in six-minute walk distance (6MWD), serum brain natriuretic peptide (BNP) or NT-proBNP levels, and quality of life as assessed by Kansas City Cardiomyopathy Questionnaire clinical summary score (KCCQ-CS) and overall summary score (KCCQ-OS) from baseline to final study visit. All comparisons were the baseline and at week 6-8 measurements at the highest daily dose of levosimendan.
• Change in six-minute walk distance (6MWD) from baseline to final study visit • Change in serum brain natriuretic peptide (BNP) or NT-proBNP levels from baseline to final study visit • Change in quality of life as assessed by Kansas City Cardiomyopathy Questionnaire clinical summary score (KCCQ-CS) and overall summary score (KCCQ-OS) from baseline to final study visit
All comparisons were the baseline and at week 6-8 measurements at the highest daily dose of levosimendan.

[3] = system: patients with PH-HFpEF; assay: HELP Study (TNX-LVO-04), weekly I.V. levosimendan for 6 weeks; format: in vivo, human; design: HELP (WK 6) 6MWT: unit not given here
Source text: The initial HELP Study is described in PCT International Application Publication No. WO 2021/126884 and Burkhoff, et al. (2021) “Levosimendan improves hemodynamics and exercise tolerance in PH-HFpEF: results of the randomized placebo-controlled HELP trial,” the entire contents of each of which are incorporated by reference. […] Among the goals of the extension study was to determine the dose of oral levosimendan that could maintain the efficacy of the weekly I.V. infusions of levosimendan.
PH-HFpEF is a progressive, fatal disease for which there are no approved therapies. All patients that the 6-week parent TNX-LVO-04 study (also referred to as the initial Help Study) underwent assessments of safety and efficacy in a double-blind randomized protocol. […] For these reasons, all participating patients were allowed to enter an open-label extension study (also referred to as TNX-LVO-05), to provide ongoing levosimendan therapy for two additional years. […]

[4] = system: phosphodiesterase-3 (PDE3); conditions: in vitro; cited from earlier work
[5] = in vivo; cited from earlier work
[6] = baseline to final study visit (week 6-8), oral levosimendan 3-4 mg/day
[7] = baseline to final visit, oral levosimendan
[8] = individual patients, Active arm of HELP Study, weekly I.V. levosimendan, week 6

C[C@@H]1CC(=O)NN=C1c1ccc(NN=C(C#N)C#N)cc1 [levosimendan]
mean change in resting heart rate [1, 6]: 4.9 (SD±7.5) beats/min
mean change in systolic arterial blood pressure [1, 6]: 4.1 (SD±12.6) mm Hg
Heart Rate Change from Baseline to Week 6 Oral, Mean ([1]; n=18): 6.9
Heart Rate Change from Baseline to Week 6 Oral, Median ([1]; n=18): 5.5
Heart Rate Change from Baseline to Week 6 Oral, Minimum ([1]; n=18): −9
SBP Change from baseline to Week 6 - Oral, Maximum ([1]; n=18): 34
SBP Change from baseline to Week 6 - Oral, Mean ([1]; n=18): 4.1
SBP Change from baseline to Week 6 - Oral, Median ([1]; n=18): 1.5
SBP Change from baseline to Week 6 - Oral, Minimum ([1]; n=18): −15
KCCQ OVERALL SUMMARY, mean Δ [2, 7]: +3.7
KCCQ PHYSICAL LIMITATION, mean Δ [2, 7]: +0.3
KCCQ QUALITY OF LIFE, mean Δ [2, 7]: +4.2
KCCQ SELF EFFICACY, mean Δ [2, 7]: −2.3
KCCQ SOCIAL LIMITATION, mean Δ [2, 7]: +5.5
KCCQ Symptom Burden, mean Δ [2, 7]: +6.3
KCCQ Symptom Frequency, mean Δ [2, 7]: +3.1
KCCQ Symptom Stability, mean Δ [2, 7]: +9.4
KCCQ TOTAL SYMPTOM, mean Δ [2, 7]: +4.7
mean KCCQ-CS score improvement ([2]; n=16, oral levosimendan): 2.5 points
mean KCCQ-OS score improvement ([2]; n=16, oral levosimendan): 3.7 points
mean KCCQ-TS score improvement ([2]; n=16, oral levosimendan): 4.7 points
HELP (WK 6) 6MWT [3, 8]: 311 and 397 and 270 and 218 and 232 and 401 and 196 and 482
HELP (WK 6) HR [3, 8]: 72 and 63 (2×) and 86 and 71 and 67 and 75 (2×)
average improvement of 6-minute walk distance ([3]; levosimendan alone, PH-HFpEF patients): approximately 29 m
effect on pulmonary vascular resistance ([3]; particularly upon chronic administration): did not decrease
PDE3/PDE4 inhibition ratio [4]: 10,000
parent half-life [5]: approximately 1 hour
